Reference: PMC2956480, “A bivalent glycopeptide to target two putative carbohydrate binding sites on FimH” (Beilstein Journal of Organic Chemistry, 2010)
Like-named read-outs stand apart in the source and are kept apart here. Marks after values point to notes of the source that are not given here.

Assays:
[1] = system: type 1 fimbriated E. coli (HB101pPKL4); FimH-mediated binding to mannan; conditions: relative to MeMan, IP(MeMan) ≡ 1; ELISA, as reported earlier; ref 34 (DubberMSperlingOLindhorstT KOrg Biomol Chem2006439013912); cited from earlier work
Excerpt: Table 1 Inhibitory potencies in mannose-specific E. coli adhesion of the bivalent glycopeptide 1 in comparison with reference ligands, as determined by ELISA. IC50-values are average values from three independent assays. S: standard deviation; RIP: relative inhibitory potency based on methyl α-D-mannopyranoside (MeMan) with IP(MeMan) ≡ 1.

[2] = system: type 1 fimbriated E. coli (HB101pPKL4); FimH-mediated binding to mannan; experiment: ELISA, inhibition of mannose-specific type 1 fimbriated E. coli adhesion to mannan-coated microtiter plates; type: cell-based
Experimental: The synthesis of the bivalent glycopeptide 1 was not optimized in order to improve all the individual yields, because it has been the primary goal of this study to test the anti-adhesive properties of this type of ligand. An ELISA was performed as reported earlier, employing type 1 fimbriated E. coli bacteria and mannan-coated microtiter plates. In this assay a mannosidic ligand competes with the polysaccharide mannan adsorbed on a polystyrene microtiter plate for FimH-mediated binding to the type 1 fimbriated bacteria. The inhibitory ligand is employed in serial dilutions. This leads to inhibition curves, from which IC50-values can be deduced. The IC50-values reﬂect the inhibitor concentration that causes 50% inhibition of bacterial binding to mannan. […] Here, RIPs were based on the IC50-value determined for MeMan on the same plate, which was defined as IP ≡ 1. […]
An ELISA protocol was used to determine the IC50-value of the bivalent target glycopeptide 1 in comparison with monovalent reference ligands, employing mannan-coated microtiter plates and type 1 fimbriated E. coli (HB101pPKL4) as described earlier Optical densities (ODs) were measured on an AMP 400 COM ELISA reader at 405 nm (reference wavelength 492 nm). The percentage inhibition was calculated as {[OD(nI)-OD(I)] × 100 × [OD(nI)]^−1} (nI: no inhibitor, I: with inhibitor). […]

SMILES	RIP (relative inhibitory potency) [1]	IC50 ([2]; mannan from Saccharomyces cerversiae coated (1 mg × ml^−1, 50 mM aq Na2CO3, pH 9.6), type 1 fimbriated E. coli (HB101pPKL4), OD at 405 nm (reference 492 nm), inhibitor in serial dilutions, sigmoidal fit, average values from three independent assays, S (in parentheses): standard deviation, read-out: IC50 (inhibitor concentration that causes 50% inhibition of bacterial binding to mannan))	RIP (relative inhibitory potency) ([2]; relative to IC50 of MeMan on the same plate, IP(MeMan) ≡ 1, type 1 fimbriated E. coli on mannan)
C=CCO[C@H]1O[C@H](CO)[C@@H](O)[C@H](O[C@H]2O[C@H](CO)[C@@H](O)[C@H](O)[C@@H]2O)[C@@H]1O [allyl Man(1,3)Man, allyl 3-O-α-D-mannosyl-α-D-mannoside]	7^a	–	–
C=CCO[C@H]1O[C@H](CO[C@H]2O[C@H](CO)[C@@H](O)[C@H](O)[C@@H]2O)[C@@H](O)[C@H](O)[C@@H]1O [allyl Man(1,6)Man, allyl 6-O-α-D-mannosyl-α-D-mannoside]	0.5^a	–	–
CO[C@H]1O[C@H](CO)[C@@H](O)[C@H](O)[C@@H]1O [MeMan, methyl α-D-mannopyranoside]	–	2900 µM	1
C=CCO[C@H]1O[C@H](CO[C@H]2O[C@H](CO)[C@@H](O)[C@H](O)[C@@H]2O)[C@@H](O)[C@H](O[C@H]2O[C@H](CO)[C@@H](O)[C@H](O)[C@@H]2O)[C@@H]1O [allyl Man(1,3)[Man(1,6)]Man, allyl 3,6-di-O-(α-D-mannosyl)-α-D-mannoside]	20^a	–	–
